Experimental data as given in ChEMBL document CHEMBL1649268, “Comparative in vitro activity profile of oritavancin against recent gram-positive clinical isolates” (2009).
Values after ≈ are worked out from the molar mass of the structure shown.

Assays:
Enterococcus faecalis [1] = assay: Antimicrobial activity against Enterococcus faecalis expressing VanB gene clinical isolates by broth microdilution method; format: functional
Enterococcus faecalis [2] = assay: Antimicrobial activity against Enterococcus faecalis expressing VanA gene clinical isolates assessed as resistant isolates by broth microdilution method; format: functional
Enterococcus faecium [3] = assay: Antimicrobial activity against Enterococcus faecium expressing VanB gene clinical isolates by broth microdilution method; format: functional
Streptococcus pneumoniae [4] = assay: Antimicrobial activity against penicillin-resistant Streptococcus pneumoniae clinical isolates assessed as resistant isolates by broth microdilution method; format: functional
Streptococcus pyogenes [5] = assay: Antimicrobial activity against erythromycin-susceptible Streptococcus pyogenes clinical isolates assessed as resistant isolates by broth microdilution method; format: functional
Enterococcus faecium [6] = assay: Antimicrobial activity against vancomycin-nonsusceptible Enterococcus faecium clinical isolates assessed as resistant isolates by broth microdilution method; format: functional
Enterococcus faecalis [7] = assay: Antimicrobial activity against vancomycin-susceptible Enterococcus faecalis clinical isolates by broth microdilution method; format: functional
Enterococcus faecium [8] = assay: Antimicrobial activity against Enterococcus faecium clinical isolates by broth microdilution method; format: functional
[9] = Antimicrobial activity against erythromycin-susceptible Streptococcus Group G clinical isolates assessed as resistant isolates by broth microdilution method; format: functional, Streptococcus sp. 'group G'
Enterococcus faecium [10] = assay: Antimicrobial activity against Enterococcus faecium expressing VanB gene clinical isolates assessed as percent susceptible isolates by broth microdilution method; format: functional
Enterococcus faecalis [11] = assay: Antimicrobial activity against Enterococcus faecalis expressing VanA gene clinical isolates by broth microdilution method; format: functional
Streptococcus pneumoniae [12] = assay: Antimicrobial activity against Streptococcus pneumoniae clinical isolates assessed as resistant isolates by broth microdilution method; format: functional
[13] = Antimicrobial activity against Streptococcus Group C clinical isolates assessed as resistant isolates by broth microdilution method; format: functional, Streptococcus sp. 'group C'
Enterococcus faecium [14] = assay: Antimicrobial activity against vancomycin-nonsusceptible Enterococcus faecium clinical isolates assessed as percent susceptible isolates by broth microdilution method; format: functional
Enterococcus faecalis [15] = assay: Antimicrobial activity against vancomycin-nonsusceptible Enterococcus faecalis clinical isolates assessed as percent susceptible isolates by broth microdilution method; format: functional
Streptococcus pneumoniae [16] = assay: Antimicrobial activity against penicillin-susceptible Streptococcus pneumoniae clinical isolates assessed as resistant isolates by broth microdilution method; format: functional
[17] = Antimicrobial activity against Streptococcus Group G clinical isolates assessed as resistant isolates by broth microdilution method; format: functional, Streptococcus sp. 'group G'
Streptococcus pyogenes [18] = assay: Antimicrobial activity against Streptococcus pyogenes clinical isolates assessed as resistant isolates by broth microdilution method; format: functional
Enterococcus faecium [19] = assay: Antimicrobial activity against vancomycin-susceptible Enterococcus faecium clinical isolates by broth microdilution method; format: functional
Enterococcus faecium [20] = assay: Antimicrobial activity against vancomycin-nonsusceptible Enterococcus faecium clinical isolates by broth microdilution method; format: functional
Enterococcus faecium [21] = assay: Antimicrobial activity against Enterococcus faecium clinical isolates assessed as percent susceptible isolates by broth microdilution method; format: functional
Streptococcus pyogenes [22] = assay: Antimicrobial activity against erythromycin-nonsusceptible Streptococcus pyogenes clinical isolates assessed as resistant isolates by broth microdilution method; format: functional
[23] = Antimicrobial activity against erythromycin-susceptible Streptococcus Group C clinical isolates assessed as resistant isolates by broth microdilution method; format: functional, Streptococcus sp. 'group C'
Enterococcus faecalis [24] = assay: Antimicrobial activity against Enterococcus faecalis clinical isolates assessed as resistant isolates by broth microdilution method; format: functional
Enterococcus faecium [25] = assay: Antimicrobial activity against Enterococcus faecium expressing VanA gene clinical isolates by broth microdilution method; format: functional
Enterococcus faecalis [26] = assay: Antimicrobial activity against Enterococcus faecalis clinical isolates assessed as percent susceptible isolates by broth microdilution method; format: functional
Enterococcus faecalis [27] = assay: Antimicrobial activity against vancomycin-susceptible Enterococcus faecalis clinical isolates assessed as resistant isolates by broth microdilution method; format: functional
Enterococcus faecium [28] = assay: Antimicrobial activity against Enterococcus faecium expressing VanA gene clinical isolates assessed as resistant isolates by broth microdilution method; format: functional
Enterococcus faecium [29] = assay: Antimicrobial activity against Enterococcus faecium expressing VanB gene clinical isolates assessed as resistant isolates by broth microdilution method; format: functional
Enterococcus faecalis [30] = assay: Antimicrobial activity against vancomycin-nonsusceptible Enterococcus faecalis clinical isolates assessed as resistant isolates by broth microdilution method; format: functional
Enterococcus faecium [31] = assay: Antimicrobial activity against vancomycin-susceptible Enterococcus faecium clinical isolates assessed as percent susceptible isolates by broth microdilution method; format: functional
Streptococcus [32] = assay: Antimicrobial activity against erythromycin-nonsusceptible Streptococcus Group F clinical isolates assessed as percent susceptible isolates by broth microdilution method; format: functional
Staphylococcus aureus [33] = assay: Antimicrobial activity against Staphylococcus aureus clinical isolates assessed as percent susceptible isolates by broth microdilution method; format: functional
[34] = system: Staphylococcus epidermidis; assay: Antimicrobial activity against oxacillin-susceptible Staphylococcus epidermidis clinical isolates assessed as percent susceptible isolates by broth microdilution method; format: functional
Staphylococcus aureus [35] = assay: Antimicrobial activity against Staphylococcus aureus clinical isolates assessed as resistant isolates by broth microdilution method; format: functional
[36] = system: Staphylococcus epidermidis; assay: Antimicrobial activity against oxacillin-susceptible Staphylococcus epidermidis clinical isolates by broth microdilution method; format: functional
[37] = system: Staphylococcus epidermidis; assay: Antimicrobial activity against oxacillin-resistant Staphylococcus epidermidis clinical isolates assessed as percent susceptible isolates by broth microdilution method; format: functional
Staphylococcus aureus [38] = assay: Antimicrobial activity against oxacillin-susceptible Staphylococcus aureus clinical isolates assessed as resistant isolates by broth microdilution method; format: functional
[39] = system: Staphylococcus haemolyticus; assay: Antimicrobial activity against oxacillin-resistant Staphylococcus haemolyticus clinical isolates assessed as percent susceptible isolates by broth microdilution method; format: functional
Staphylococcus aureus [40] = assay: Antimicrobial activity against oxacillin-resistant Staphylococcus aureus clinical isolates assessed as percent susceptible isolates by broth microdilution method; format: functional
[41] = system: Staphylococcus epidermidis; assay: Antimicrobial activity against oxacillin-resistant Staphylococcus epidermidis clinical isolates assessed as resistant isolates by broth microdilution method; format: functional
[42] = Antimicrobial activity against erythromycin-nonsusceptible Streptococcus Group G clinical isolates assessed as percent susceptible isolates by broth microdilution method; format: functional, Streptococcus sp. 'group G'
[43] = system: Staphylococcus epidermidis; assay: Antimicrobial activity against oxacillin-susceptible Staphylococcus epidermidis clinical isolates assessed as resistant isolates by broth microdilution method; format: functional
[44] = Antimicrobial activity against Streptococcus Group G clinical isolates assessed as percent susceptible isolates by broth microdilution method; format: functional, Streptococcus sp. 'group G'
Staphylococcus aureus [45] = assay: Antimicrobial activity against oxacillin-resistant Staphylococcus aureus clinical isolates by broth microdilution method; format: functional
Staphylococcus aureus [46] = assay: Antimicrobial activity against oxacillin-susceptible Staphylococcus aureus clinical isolates assessed as percent susceptible isolates by broth microdilution method; format: functional
[47] = Antimicrobial activity against erythromycin-nonsusceptible Streptococcus Group C clinical isolates assessed as percent susceptible isolates by broth microdilution method; format: functional, Streptococcus sp. 'group C'
Staphylococcus aureus [48] = assay: Antimicrobial activity against oxacillin-susceptible Staphylococcus aureus clinical isolates by broth microdilution method; format: functional
Streptococcus [49] = assay: Antimicrobial activity against erythromycin-susceptible Streptococcus Group F clinical isolates assessed as percent susceptible isolates by broth microdilution method; format: functional
Staphylococcus aureus [50] = assay: Antimicrobial activity against oxacillin-resistant Staphylococcus aureus clinical isolates assessed as resistant isolates by broth microdilution method; format: functional
[51] = system: Staphylococcus haemolyticus; assay: Antimicrobial activity against Staphylococcus haemolyticus clinical isolates assessed as percent susceptible isolates by broth microdilution method; format: functional
[52] = system: Staphylococcus haemolyticus; assay: Antimicrobial activity against Staphylococcus haemolyticus clinical isolates by broth microdilution method; format: functional
[53] = system: Staphylococcus epidermidis; assay: Antimicrobial activity against Staphylococcus epidermidis clinical isolates by broth microdilution method; format: functional
Streptococcus [54] = assay: Antimicrobial activity against Streptococcus Group F clinical isolates assessed as resistant isolates by broth microdilution method; format: functional
Streptococcus [55] = assay: Antimicrobial activity against erythromycin-susceptible Streptococcus Group F clinical isolates assessed as resistant isolates by broth microdilution method; format: functional
Streptococcus [56] = assay: Antimicrobial activity against erythromycin-nonsusceptible Streptococcus Group F clinical isolates assessed as resistant isolates by broth microdilution method; format: functional

C[C@H]1COc2c(N3CCN(C)CC3)c(F)cc3c(=O)c(C(=O)O)cn1c23.C[C@H]1COc2c(N3CCN(C)CC3)c(F)cc3c(=O)c(C(=O)O)cn1c23.O [LEVOFLOXACIN]
MIC90 (Enterococcus faecalis [1]): > 16 µg/mL | Activity (Enterococcus faecalis [2]): 100% | MIC90 (Enterococcus faecium [3]): > 16 µg/mL | Percent of isolates resistant (Streptococcus pneumoniae [4]): 0.7% | Activity (Streptococcus pyogenes [5]): 0% | Activity (Enterococcus faecium [6]): 99.8% | MIC90 (Enterococcus faecalis [7]): > 16 µg/mL | MIC90 (Enterococcus faecium [8]): > 16 µg/mL | Activity [9]: 0% | Activity (Enterococcus faecium [10]): 0% | MIC90 (Enterococcus faecalis [11]): > 16 µg/mL | Resistant isolates (Streptococcus pneumoniae [12]): 0.9% | Activity [13]: 0% | Activity (Enterococcus faecium [14]): 0.2% | Activity (Enterococcus faecalis [15]): 0% | Percent of isolates resistant (Streptococcus pneumoniae [16]): 0.5% | Activity [17]: 0% | Activity (Streptococcus pyogenes [18]): 0.1% | MIC90 (Enterococcus faecium [19]): > 16 µg/mL | MIC90 (Enterococcus faecium [20]): > 16 µg/mL | Activity (Enterococcus faecium [21]): 12.2% | Activity (Streptococcus pyogenes [22]): 0.8% | Activity [23]: 0% | Activity (Enterococcus faecalis [24]): 38.4% | MIC90 (Enterococcus faecium [25]): > 16 µg/mL | Activity (Enterococcus faecalis [26]): 61.2% | Activity (Enterococcus faecalis [27]): 35.2% | Activity (Enterococcus faecium [28]): 99.8% | Activity (Enterococcus faecium [29]): 100% | Activity (Enterococcus faecalis [30]): 100% | Activity (Enterococcus faecium [31]): 28.3%

CN[C@H](CC(C)C)C(=O)N[C@H]1C(=O)N[C@@H](CC(N)=O)C(=O)N[C@H]2C(=O)N[C@H]3C(=O)N[C@H](C(=O)N[C@H](C(=O)O)c4cc(O)cc(O)c4-c4cc3ccc4O)[C@H](O)c3ccc(c(Cl)c3)Oc3cc2cc(c3O[C@@H]2O[C@H](CO)[C@@H](O)[C@H](O)[C@H]2O[C@H]2C[C@](C)(N)[C@H](O)[C@H](C)O2)Oc2ccc(cc2Cl)[C@H]1O [VANCOMYCIN]
Activity (Streptococcus [32]): 100% | Activity (Staphylococcus aureus [33]): 100% | Activity [34]: 100% | Percent resistant isolates (Staphylococcus aureus [35]): 0% | MIC90 (Enterococcus faecalis [1]): > 256 µg/mL | Activity (Enterococcus faecalis [2]): 100% | MIC90 (Enterococcus faecium [3]): 256 µg/mL (≈ 177 µM) | MIC90 [36]: 2 µg/mL (≈ 1.38 µM) | Activity [37]: 100% | Percent of isolates resistant (Staphylococcus aureus [38]): 0% | MIC90 (Enterococcus faecalis [7]): 2 µg/mL (≈ 1.38 µM) | Activity [39]: 100% | MIC90 (Enterococcus faecium [8]): > 256 µg/mL | Activity (Staphylococcus aureus [40]): 100% | Activity (Enterococcus faecium [10]): 0% | MIC90 (Enterococcus faecalis [11]): > 256 µg/mL | Percent of isolates resistant [41]: 0% | Activity [42]: 100% | Percent of isolates resistant [43]: 0% | Activity (Enterococcus faecium [14]): 0% | Activity [44]: 100% | MIC90 (Staphylococcus aureus [45]): 1 µg/mL (≈ 0.69 µM) | Activity (Enterococcus faecalis [15]): 0% | Activity (Staphylococcus aureus [46]): 100% | Activity [47]: 100% | MIC90 (Staphylococcus aureus [48]): 1 µg/mL (≈ 0.69 µM) | Activity (Streptococcus [49]): 100% | MIC90 (Enterococcus faecium [19]): 1 µg/mL (≈ 0.69 µM) | MIC90 (Enterococcus faecium [20]): > 256 µg/mL | Activity (Enterococcus faecium [21]): 42.7% | Percent resistant isolates (Staphylococcus aureus [50]): 0% | Activity [51]: 100% | Activity (Enterococcus faecalis [24]): 4.7% | MIC90 (Enterococcus faecium [25]): > 256 µg/mL | Activity (Enterococcus faecalis [26]): 95% | Activity (Enterococcus faecalis [27]): 0% | MIC90 [52]: 2 µg/mL (≈ 1.38 µM) | Activity (Enterococcus faecalis [30]): 94.3% | MIC90 [53]: 2 µg/mL (≈ 1.38 µM)

CCC[C@@H]1C[C@@H](C(=O)N[C@@H]([C@H]2O[C@H](SC)[C@H](O)[C@@H](O)[C@H]2O)[C@H](C)Cl)N(C)C1 [CLINDAMYCIN]
Activity (Streptococcus [32]): 82.4% | Activity (Staphylococcus aureus [33]): 75.7% | Activity [34]: 88.2% | Percent resistant isolates (Staphylococcus aureus [35]): 24.1% | MIC90 [36]: > 2 µg/mL | Activity [37]: 56.3% | Percent of isolates resistant (Staphylococcus aureus [38]): 8% | Percent of isolates resistant (Streptococcus pneumoniae [4]): 54.1% | Activity (Streptococcus pyogenes [5]): 0% | Activity [39]: 60.9% | Activity (Staphylococcus aureus [40]): 61.9% | Activity [9]: 0% | Activity (Streptococcus [54]): 3.6% | Percent of isolates resistant [41]: 43.3% | Activity [42]: 82.4% | Resistant isolates (Streptococcus pneumoniae [12]): 12.9% | Activity [13]: 3.6% | Percent of isolates resistant [43]: 11% | Activity [44]: 96.4% | Percent of isolates resistant (Streptococcus pneumoniae [16]): 2.6% | Activity (Staphylococcus aureus [46]): 91.8% | Activity [47]: 82.4% | Activity [17]: 3.6% | MIC90 (Staphylococcus aureus [48]): 0.25 µg/mL (≈ 0.588 µM) | Activity (Streptococcus pyogenes [18]): 3.9% | Activity (Streptococcus [55]): 0% | Activity (Streptococcus [49]): 100% | Activity (Streptococcus pyogenes [22]): 28.2% | Activity (Streptococcus [56]): 17.6% | Percent resistant isolates (Staphylococcus aureus [50]): 37.9% | Activity [51]: 70.3% | Activity [23]: 0% | MIC90 [52]: > 2 µg/mL | MIC90 [53]: > 4 µg/mL
